Test results as given in ChEMBL document CHEMBL1201861, “Genomics of Drug Sensitity in Cancer screening data, Wellcome Trust Sanger Institute”.

What was measured:
Experiment in all cases: cells
CTV-1 = type: functional, cell-based, Homo sapiens; details: Homo sapiens, CTV-1;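 further: growth inhibition of the cell line, read out with a cell viability assay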
Description: SANGER: Inhibition of human CTV-1 cell growth in a cell viability assay.

DBTRG-05MG = type: functional, cell-based; details: Homo sapiens;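 further: cell viability assay measuring growth inhibition of human DBTRG-05MG cells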
Description: SANGER: Inhibition of human DBTRG-05MG cell growth in a cell viability assay.

DOHH-2 = type: functional, cell-based, Homo sapiens; details: Homo sapiens, DOHH-2;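 further: growth inhibition of human DOHH-2 cells, read out with a cell viability assay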
Description: SANGER: Inhibition of human DOHH-2 cell growth in a cell viability assay.

DU-4475 = type: functional, cell-based, Homo sapiens; details: Homo sapiens, DU-4475
Description: SANGER: Inhibition of human DU-4475 cell growth in a cell viability assay.

EKVX = type: functional, cell-based, Homo sapiens; details: Homo sapiens, EKVX;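 further: growth inhibition of human EKVX cells, read out with a cell viability assay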
Description: SANGER: Inhibition of human EKVX cell growth in a cell viability assay.

ES3 = type: functional, cell-based, Homo sapiens; details: Homo sapiens, ES3;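 further: growth inhibition of ES3 cells, read out with a cell viability assay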
Description: SANGER: Inhibition of human ES3 cell growth in a cell viability assay.

ES4 = type: functional, cell-based, Homo sapiens; details: Homo sapiens, ES4;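 further: growth inhibition of human ES4 cells, read out by a cell viability assay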
Description: SANGER: Inhibition of human ES4 cell growth in a cell viability assay.

EW-16 = type: functional, cell-based, Homo sapiens; details: Homo sapiens, EW-16;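 further: growth inhibition of human EW-16 cells, read out as cell viability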
Description: SANGER: Inhibition of human EW-16 cell growth in a cell viability assay.

GI-1 = type: functional, cell-based, Homo sapiens; details: Homo sapiens, GI-1;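 further: growth inhibition of human GI-1 cells, measured with a cell viability readout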
Description: SANGER: Inhibition of human GI-1 cell growth in a cell viability assay.

HCC2157 = type: functional, cell-based, Homo sapiens; details: Homo sapiens, HCC2157;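 further: growth inhibition of the cancer cell line, read out as cell viability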
Description: SANGER: Inhibition of human HCC2157 cell growth in a cell viability assay.

HDLM-2 = type: functional, cell-based, Homo sapiens; details: Homo sapiens, HDLM-2;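 further: cell viability assay measuring suppression of HDLM-2 proliferation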
Description: SANGER: Inhibition of human HDLM-2 cell growth in a cell viability assay.

HL-60 = type: functional, cell-based, Homo sapiens; details: Homo sapiens, HL-60;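 further: growth inhibition of human HL-60 cells, read out with a cell viability assay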
Description: SANGER: Inhibition of human HL-60 cell growth in a cell viability assay.

HT = type: functional, cell-based, Homo sapiens; details: Homo sapiens, HT
Description: SANGER: Inhibition of human HT cell growth in a cell viability assay.

J-RT3-T3-5 = type: functional, cell-based, Homo sapiens; details: Homo sapiens, J-RT3-T3-5;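 further: cell viability assay measuring growth inhibition of human J-RT3-T3-5 cells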
Description: SANGER: Inhibition of human J-RT3-T3-5 cell growth in a cell viability assay.

JVM-2 = type: functional, cell-based, Homo sapiens; details: Homo sapiens, JVM-2;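 further: growth inhibition of JVM-2 cells determined by a cell viability assay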
Description: SANGER: Inhibition of human JVM-2 cell growth in a cell viability assay.

KARPAS-45 = type: functional, cell-based, Homo sapiens; details: Homo sapiens, KARPAS-45;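 further: inhibition of cell line growth, read out through a viability assay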
Description: SANGER: Inhibition of human KARPAS-45 cell growth in a cell viability assay.

KU812 cell line = type: functional, cell-based, Homo sapiens; details: Homo sapiens, KU812;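 further: growth inhibition of KU812 cells, read out with a cell viability assay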
Description: SANGER: Inhibition of human KU812 cell growth in a cell viability assay.

KURAMOCHI = type: functional, cell-based, Homo sapiens; details: Homo sapiens, KURAMOCHI;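 further: growth inhibition of KURAMOCHI cells, read out with a cell viability assay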
Description: SANGER: Inhibition of human KURAMOCHI cell growth in a cell viability assay.

KY821 = type: functional, cell-based, Homo sapiens; details: Homo sapiens, KY821;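 further: growth inhibition of human KY821 cells, read out by a cell viability assay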
Description: SANGER: Inhibition of human KY821 cell growth in a cell viability assay.

LAMA-84 = type: functional, cell-based, Homo sapiens; details: Homo sapiens, LAMA-84;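 further: growth inhibition of LAMA-84 cells, read out with a cell viability assay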
Description: SANGER: Inhibition of human LAMA-84 cell growth in a cell viability assay.

LAN-6 = type: functional, cell-based, Homo sapiens; details: Homo sapiens, LAN-6;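 further: growth inhibition of LAN-6 cells, determined with a cell viability assay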
Description: SANGER: Inhibition of human LAN-6 cell growth in a cell viability assay.

LB1047-RCC = type: functional, cell-based, Homo sapiens; details: Homo sapiens, LB1047-RCC;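 further: inhibition of cell growth, determined with a cell viability assay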
Description: SANGER: Inhibition of human LB1047-RCC cell growth in a cell viability assay.

LB771-HNC = type: functional, cell-based; details: Homo sapiens;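 further: growth inhibition of LB771-HNC human cells, read out with a cell viability assay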
Description: SANGER: Inhibition of human LB771-HNC cell growth in a cell viability assay.

LC-2-ad = type: functional, cell-based, Homo sapiens; details: Homo sapiens, LC-2-ad;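 further: growth inhibition of human LC-2-ad cells, read out with a cell viability assay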
Description: SANGER: Inhibition of human LC-2-ad cell growth in a cell viability assay.

LNCaP-Clone-FGC = type: functional, cell-based, Homo sapiens; details: Homo sapiens, LNCaP-Clone-FGC
Description: SANGER: Inhibition of human LNCaP-Clone-FGC cell growth in a cell viability assay.

LS-411N = type: functional, cell-based, Homo sapiens; details: Homo sapiens, LS-411N
LU-134-A = type: functional, cell-based, Homo sapiens; details: Homo sapiens, LU-134-A
Description: SANGER: Inhibition of human LU-134-A cell growth in a cell viability assay.

MC116 = type: functional, cell-based, Homo sapiens; details: Homo sapiens, MC116;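 further: growth inhibition of MC116 cells, read out with a cell viability assay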
Description: SANGER: Inhibition of human MC116 cell growth in a cell viability assay.

NB10 = type: functional, cell-based, Homo sapiens; details: Homo sapiens, NB10;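 further: growth inhibition of NB10 cells, read out by a cell viability assay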
Description: SANGER: Inhibition of human NB10 cell growth in a cell viability assay.

NCI-H1155 = type: functional, cell-based, Homo sapiens; details: Homo sapiens, NCI-H1155;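 further: cell growth inhibition measured by a viability assay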
Description: SANGER: Inhibition of human NCI-H1155 cell growth in a cell viability assay.

NCI-H226 = type: functional, cell-based, Homo sapiens; details: Homo sapiens, NCI-H226;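 further: cell viability read-out used to gauge growth inhibition of the cells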
Description: SANGER: Inhibition of human NCI-H226 cell growth in a cell viability assay.

NKM-1 = type: functional, cell-based, Homo sapiens; details: Homo sapiens, NKM-1;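 further: growth inhibition of NKM-1 cells, read out with a cell viability assay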
Description: SANGER: Inhibition of human NKM-1 cell growth in a cell viability assay.

P30-OHK = type: functional, cell-based, Homo sapiens; details: Homo sapiens, P30-OHK;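 further: growth inhibition of the P30-OHK cell line, read out with a cell viability assay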
Description: SANGER: Inhibition of human P30-OHK cell growth in a cell viability assay.

RXF 393 = type: functional, cell-based, Homo sapiens; details: Homo sapiens, RXF 393;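 further: growth inhibition of human RXF 393 cells, read out with a cell viability assay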
Description: SANGER: Inhibition of human RXF393 cell growth in a cell viability assay.

SCH = type: functional, cell-based, Homo sapiens; details: Homo sapiens, SCH;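 further: growth inhibition of human SCH cells, read out in a cell viability assay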
Description: SANGER: Inhibition of human SCH cell growth in a cell viability assay.

SK-PN-DW = type: functional, cell-based, Homo sapiens; details: Homo sapiens, SK-PN-DW;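 further: growth inhibition measured with a viability assay on these cells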
Description: SANGER: Inhibition of human SK-PN-DW cell growth in a cell viability assay.

SK-UT-1 = type: functional, cell-based, Homo sapiens; details: Homo sapiens, SK-UT-1;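 further: growth inhibition of SK-UT-1 cells, measured by a cell viability assay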
Description: SANGER: Inhibition of human SK-UT-1 cell growth in a cell viability assay.

SW756 = type: functional, cell-based; details: Homo sapiens;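 further: growth inhibition of human SW756 cells, read out with a cell viability assay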
Description: SANGER: Inhibition of human SW756 cell growth in a cell viability assay.

SW 954 = type: functional, cell-based, Homo sapiens; details: Homo sapiens, SW 954;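 further: growth inhibition of SW954 human cancer cells, read out as cell viability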
Description: SANGER: Inhibition of human SW954 cell growth in a cell viability assay.

TE-1 = type: functional, cell-based, Homo sapiens; details: Homo sapiens, TE-1
Description: SANGER: Inhibition of human TE-1 cell growth in a cell viability assay.

A253 cell line = type: functional, cell-based, Homo sapiens; details: Homo sapiens, A253;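 further: growth inhibition of A253 cells, read out with a cell viability assay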
Description: SANGER: Inhibition of human A253 cell growth in a cell viability assay.

A4-Fuk = type: functional, cell-based, Homo sapiens; details: Homo sapiens, A4-Fuk;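 further: growth inhibition of A4-Fuk cells, read out by a cell viability assay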
Description: SANGER: Inhibition of human A4-Fuk cell growth in a cell viability assay.

A498 = type: functional, cell-based, Homo sapiens; details: Homo sapiens, A498;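 further: growth inhibition of human A498 cells, read out with a cell viability assay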
Description: SANGER: Inhibition of human A498 cell growth in a cell viability assay.

ACN = type: functional, cell-based, Homo sapiens; details: Homo sapiens, ACN;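 further: growth inhibition of the human ACN cell line, read out via cell viability testing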
Description: SANGER: Inhibition of human ACN cell growth in a cell viability assay.

C-33-A = type: functional, cell-based; details: Homo sapiens;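 further: cell viability assay measuring growth inhibition of C-33-A cells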
Description: SANGER: Inhibition of human C-33-A cell growth in a cell viability assay.

C32 = type: functional, cell-based; details: Homo sapiens;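 further: cell viability assay, with IC50 reflecting inhibition of C32 cell growth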
Description: SANGER: Inhibition of human C32 cell growth in a cell viability assay.

TE-11 = type: functional, cell-based; details: Homo sapiens;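 further: growth inhibition of human TE-11 cells, read out by a cell viability assay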
Description: SANGER: Inhibition of human TE-11 cell growth in a cell viability assay.

TE-12 = type: functional, cell-based, Homo sapiens; details: Homo sapiens, TE-12;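 further: growth inhibition of TE-12 cells, read out by a cell viability assay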
Description: SANGER: Inhibition of human TE-12 cell growth in a cell viability assay.

TGBC24TKB = type: functional, cell-based; details: Homo sapiens;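 further: growth inhibition of human TGBC24TKB cells, read out with a cell viability assay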
Description: SANGER: Inhibition of human TGBC24TKB cell growth in a cell viability assay.

UACC-257 = type: functional, cell-based, Homo sapiens; details: Homo sapiens, UACC-257
Description: SANGER: Inhibition of human UACC-257 cell growth in a cell viability assay.

CAS-1 = type: functional, cell-based, Homo sapiens; details: Homo sapiens, CAS-1;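 further: growth inhibition of CAS-1 cells, measured with a cell viability assay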
Description: SANGER: Inhibition of human CAS-1 cell growth in a cell viability assay.

SMILES: Cc1ccc(-n2nc(C(C)(C)C)cc2NC(=O)Nc2ccc(OCCN3CCOCC3)c3ccccc23)cc1 [DORAMAPIMOD]
- IC50 (CTV-1): > 10 µM
- IC50 (DBTRG-05MG): > 10 µM
- IC50 (DOHH-2): > 10 µM
- IC50 (DU-4475): > 10 µM
- IC50 (EKVX): > 10 µM
- IC50 (ES3): > 10 µM
- IC50 (ES4): > 10 µM
- IC50 (EW-16): > 10 µM
- IC50 (GI-1): > 10 µM
- IC50 (HCC2157): > 10 µM
- IC50 (HDLM-2): > 10 µM
- IC50 (HL-60): > 10 µM
- IC50 (HT): > 10 µM
- IC50 (J-RT3-T3-5): > 10 µM
- IC50 (JVM-2): > 10 µM
- IC50 (KARPAS-45): > 10 µM
- IC50 (KU812 cell line): > 10 µM
- IC50 (KURAMOCHI): > 10 µM
- IC50 (KY821): > 10 µM
- IC50 (LAMA-84): > 10 µM
- IC50 (LAN-6): > 10 µM
- IC50 (LB1047-RCC): > 10 µM
- IC50 (LB771-HNC): > 10 µM
- IC50 (LC-2-ad): > 10 µM
- IC50 (LNCaP-Clone-FGC): > 10 µM
- IC50 (LS-411N): > 10 µM
- IC50 (LU-134-A): > 10 µM
- IC50 (MC116): > 10 µM
- IC50 (NB10): > 10 µM
- IC50 (NCI-H1155): > 10 µM
- IC50 (NCI-H226): > 10 µM
- IC50 (NKM-1): > 10 µM
- IC50 (P30-OHK): > 10 µM
- IC50 (RXF 393): > 10 µM
- IC50 (SCH): > 10 µM
- IC50 (SK-PN-DW): > 10 µM
- IC50 (SK-UT-1): > 10 µM
- IC50 (SW756): > 10 µM
- IC50 (SW 954): > 10 µM
- IC50 (TE-1): > 10 µM
- IC50 (A253 cell line): > 10 µM
- IC50 (A4-Fuk): > 10 µM
- IC50 (A498): > 10 µM
- IC50 (ACN): > 10 µM
- IC50 (C-33-A): > 10 µM
- IC50 (C32): > 10 µM
- IC50 (TE-11): > 10 µM
- IC50 (TE-12): > 10 µM
- IC50 (TGBC24TKB): > 10 µM
- IC50 (UACC-257): > 10 µM
- IC50 (CAS-1): > 10 µM

SMILES: CCCCCCCCCCCC1=C(O)C(=O)C=C(O)C1=O [EMBELIN]
- IC50 (CTV-1): 9.37 µM
- IC50 (DBTRG-05MG): 15.4 µM
- IC50 (DOHH-2): 7.57 µM
- IC50 (DU-4475): 13.2 µM
- IC50 (EKVX): > 32 µM
- IC50 (ES3): 15.4 µM
- IC50 (ES4): 4.52 µM
- IC50 (EW-16): 4.27 µM
- IC50 (GI-1): 3.76 µM
- IC50 (HCC2157): > 32 µM
- IC50 (HDLM-2): 17.2 µM
- IC50 (HL-60): 8.85 µM
- IC50 (HT): 5.51 µM
- IC50 (J-RT3-T3-5): 6.09 µM
- IC50 (JVM-2): > 32 µM
- IC50 (KARPAS-45): 15.6 µM
- IC50 (KU812 cell line): > 32 µM
- IC50 (KURAMOCHI): 7.06 µM
- IC50 (KY821): > 32 µM
- IC50 (LAMA-84): 18.5 µM
- IC50 (LAN-6): > 32 µM
- IC50 (LB1047-RCC): 5.8 µM
- IC50 (LB771-HNC): > 32 µM
- IC50 (LC-2-ad): 12.9 µM
- IC50 (LNCaP-Clone-FGC): 21.9 µM
- IC50 (LS-411N): 7.49 µM
- IC50 (LU-134-A): > 32 µM
- IC50 (MC116): 2.82 µM
- IC50 (NB10): > 32 µM
- IC50 (NCI-H1155): > 32 µM
- IC50 (NCI-H226): 17.9 µM
- IC50 (NKM-1): > 32 µM
- IC50 (P30-OHK): 6.13 µM
- IC50 (RXF 393): > 32 µM
- IC50 (SCH): > 32 µM
- IC50 (SK-PN-DW): 30.6 µM
- IC50 (SK-UT-1): 4.69 µM
- IC50 (SW756): > 32 µM
- IC50 (SW 954): 31.1 µM
- IC50 (TE-1): 21.6 µM
- IC50 (A253 cell line): 7.75 µM
- IC50 (A4-Fuk): > 32 µM
- IC50 (A498): > 32 µM
- IC50 (ACN): 5.86 µM
- IC50 (C-33-A): > 32 µM
- IC50 (C32): 2.83 µM
- IC50 (TE-11): > 32 µM
- IC50 (TE-12): 14.4 µM
- IC50 (TGBC24TKB): 26.5 µM
- IC50 (UACC-257): > 32 µM
- IC50 (CAS-1): 15.3 µM
